Values of other authors in USRE37727E1, “Method for treating nerve injury pain associated with shingles” (priority 1989, dated 2002).

Settings: venous; reported range

In the case of `CCN(CC)CC(=O)Nc1c(C)cccc1C` [lidocaine], the “minimum concentrations of lidocaine for anti-arrhythmic effects” value is listed as 0.6 to 2.0 µg/mL.
